Assay results as given in ChEMBL document CHEMBL3102800, “Discovery and optimization of N-(3-(1,3-dioxo-2,3-dihydro-1H-pyrrolo[3,4-c]pyridin-4-yloxy)phenyl)benzenesulfonamides as novel GPR119 agonists” (Bioorg Med Chem Lett, 2014).

Tests used:
[1] = Intrinsic clearance in human liver microsomes; assay type: ADME; conditions: read-out: CLH
[2] = Intrinsic clearance in rat liver microsomes; assay type: ADME; conditions: read-out: CLH
[3] = target: T1, Glucose-dependent insulinotropic receptor (Homo sapiens) (UniProt Q8TDV5); assay: Agonist activity at human GPR119 expressed in HEK293 cells assessed as cAMP accumulation after 30 mins relative to isopropyl 4-(1-(4-(methylsulfonyl)phenyl)-1H-pyrazolo[3,4-d]pyrimidin-4-yloxy)piperidine-1-carboxylate; assay type: functional, cell-based
T1 sequence (whole entry): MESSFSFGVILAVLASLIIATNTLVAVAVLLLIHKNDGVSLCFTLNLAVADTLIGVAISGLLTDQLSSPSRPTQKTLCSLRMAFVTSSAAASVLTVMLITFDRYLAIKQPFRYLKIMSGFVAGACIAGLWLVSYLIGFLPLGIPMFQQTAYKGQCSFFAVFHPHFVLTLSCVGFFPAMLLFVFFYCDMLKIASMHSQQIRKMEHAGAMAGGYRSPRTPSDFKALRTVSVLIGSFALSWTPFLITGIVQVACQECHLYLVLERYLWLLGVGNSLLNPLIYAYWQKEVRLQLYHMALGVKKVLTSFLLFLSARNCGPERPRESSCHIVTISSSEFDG

[4] = target: T2, Glucose-dependent insulinotropic receptor (Homo sapiens, UniProt Q8TDV5); assay: Agonist activity at human GPR119 expressed in HEK293 cells assessed as cAMP accumulation after 30 mins; assay type: functional, cell-based
T2 sequence (Q8TDV5 whole entry): T1 sequence (whole entry)

[5] = target: T3, Glucose-dependent insulinotropic receptor (Rattus norvegicus, UniProt Q7TQN8); assay: Agonist activity at rat GPR119 assessed as cAMP accumulation; assay type: functional
T3 sequence (Q7TQN8 whole entry): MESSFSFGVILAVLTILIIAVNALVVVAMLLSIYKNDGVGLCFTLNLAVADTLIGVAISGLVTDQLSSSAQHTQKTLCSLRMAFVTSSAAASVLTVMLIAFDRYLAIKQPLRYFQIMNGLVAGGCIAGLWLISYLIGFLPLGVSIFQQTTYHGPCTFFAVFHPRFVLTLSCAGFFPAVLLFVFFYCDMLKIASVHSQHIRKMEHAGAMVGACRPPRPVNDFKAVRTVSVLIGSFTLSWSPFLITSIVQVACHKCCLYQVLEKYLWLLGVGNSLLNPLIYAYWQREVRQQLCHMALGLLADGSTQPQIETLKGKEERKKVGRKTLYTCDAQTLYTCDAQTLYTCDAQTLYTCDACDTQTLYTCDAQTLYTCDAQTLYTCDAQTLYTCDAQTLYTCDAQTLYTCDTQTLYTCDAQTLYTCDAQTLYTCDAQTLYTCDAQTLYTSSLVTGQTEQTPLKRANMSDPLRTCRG

[6] = target: T4, Glucose-dependent insulinotropic receptor (Mus musculus, UniProt Q7TQP3); assay: Agonist activity at mouse GPR119 assessed as cAMP accumulation; assay type: functional
T4 sequence (Q7TQP3 whole entry): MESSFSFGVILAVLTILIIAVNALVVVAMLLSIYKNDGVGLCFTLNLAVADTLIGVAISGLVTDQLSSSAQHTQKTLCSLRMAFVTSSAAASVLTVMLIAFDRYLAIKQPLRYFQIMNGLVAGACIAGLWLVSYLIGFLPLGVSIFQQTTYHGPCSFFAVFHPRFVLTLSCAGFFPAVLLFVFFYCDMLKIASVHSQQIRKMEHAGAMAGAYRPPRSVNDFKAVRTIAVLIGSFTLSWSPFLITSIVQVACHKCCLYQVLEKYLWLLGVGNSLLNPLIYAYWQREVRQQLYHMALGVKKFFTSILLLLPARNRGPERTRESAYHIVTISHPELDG

[7] = Plasma protein binding in cynomolgus monkey; assay type: ADME, cell-free, Macaca fascicularis; conditions: read-out: PPB
Bile salt export pump = Bile salt export pump (Homo sapiens, UniProt O95342); assay: Binding affinity to BSEP (unknown origin)
Chain of Bile salt export pump (O95342 whole entry): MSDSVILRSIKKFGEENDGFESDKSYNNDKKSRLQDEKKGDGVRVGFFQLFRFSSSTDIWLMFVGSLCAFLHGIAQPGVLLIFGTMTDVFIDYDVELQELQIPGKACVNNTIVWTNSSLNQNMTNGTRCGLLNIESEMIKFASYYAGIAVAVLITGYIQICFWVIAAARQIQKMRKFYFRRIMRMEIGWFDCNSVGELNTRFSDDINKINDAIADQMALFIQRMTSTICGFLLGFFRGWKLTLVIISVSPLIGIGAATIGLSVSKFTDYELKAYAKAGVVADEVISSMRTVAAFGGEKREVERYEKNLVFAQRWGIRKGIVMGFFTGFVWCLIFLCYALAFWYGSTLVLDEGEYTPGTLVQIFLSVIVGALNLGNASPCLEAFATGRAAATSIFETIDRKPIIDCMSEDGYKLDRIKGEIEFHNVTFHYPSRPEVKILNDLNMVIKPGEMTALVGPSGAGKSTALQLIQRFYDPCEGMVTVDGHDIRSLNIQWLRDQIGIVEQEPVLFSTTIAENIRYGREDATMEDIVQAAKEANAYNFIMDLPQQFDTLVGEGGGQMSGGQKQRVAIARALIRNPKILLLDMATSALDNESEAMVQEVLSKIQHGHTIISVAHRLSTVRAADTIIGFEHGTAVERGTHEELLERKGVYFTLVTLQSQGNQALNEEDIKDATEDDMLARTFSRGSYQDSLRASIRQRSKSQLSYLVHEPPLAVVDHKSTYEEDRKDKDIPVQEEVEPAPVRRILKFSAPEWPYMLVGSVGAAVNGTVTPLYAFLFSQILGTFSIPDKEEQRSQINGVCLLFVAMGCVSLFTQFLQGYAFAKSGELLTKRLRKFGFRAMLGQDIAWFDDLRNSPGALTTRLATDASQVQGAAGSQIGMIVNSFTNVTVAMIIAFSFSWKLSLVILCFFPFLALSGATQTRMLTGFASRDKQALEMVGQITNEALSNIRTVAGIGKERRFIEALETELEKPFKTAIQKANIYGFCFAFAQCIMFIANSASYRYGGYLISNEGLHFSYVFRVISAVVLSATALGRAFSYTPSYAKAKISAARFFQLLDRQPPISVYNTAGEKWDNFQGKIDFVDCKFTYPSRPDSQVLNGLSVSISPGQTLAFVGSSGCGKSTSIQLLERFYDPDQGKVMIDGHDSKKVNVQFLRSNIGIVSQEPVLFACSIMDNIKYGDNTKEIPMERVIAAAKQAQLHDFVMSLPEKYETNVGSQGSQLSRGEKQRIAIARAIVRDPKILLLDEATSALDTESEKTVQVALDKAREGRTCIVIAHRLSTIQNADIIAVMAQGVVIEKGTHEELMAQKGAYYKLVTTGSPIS

[8] = Plasma protein binding in human; assay type: ADME, cell-free; conditions: read-out: PPB
[9] = Inhibition of Cytochrome P450 (unknown origin); assay type: ADME; conditions: human
[10] = target: T5, Nuclear receptor subfamily 1 group I member 2 (Homo sapiens, UniProt O75469); assay: Activation of human PXR
T5 sequence (O75469 whole entry): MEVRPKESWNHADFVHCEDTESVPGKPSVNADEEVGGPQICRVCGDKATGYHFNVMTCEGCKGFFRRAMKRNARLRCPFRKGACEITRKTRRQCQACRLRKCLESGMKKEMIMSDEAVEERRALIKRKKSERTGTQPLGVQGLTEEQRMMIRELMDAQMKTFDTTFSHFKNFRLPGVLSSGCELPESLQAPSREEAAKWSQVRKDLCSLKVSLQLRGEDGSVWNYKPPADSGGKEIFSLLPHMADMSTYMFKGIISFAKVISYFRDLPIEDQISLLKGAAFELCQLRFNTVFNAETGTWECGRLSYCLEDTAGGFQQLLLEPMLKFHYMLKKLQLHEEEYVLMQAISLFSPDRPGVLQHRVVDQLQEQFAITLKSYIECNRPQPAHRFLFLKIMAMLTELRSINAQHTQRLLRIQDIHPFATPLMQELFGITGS

[11] = Oral bioavailability in cynomolgus monkey at 2 mg/kg; assay type: ADME, organism-based, Macaca fascicularis; conditions: in vivo
[12] = Volume of distribution at steady state in cynomolgus monkey at 0.5 mg/kg, iv; assay type: ADME, organism-based, Macaca fascicularis; set-up: dose 0.5 mg/kg, route intravenous; conditions: in vivo, read-out: Vdss
[13] = Half life in cynomolgus monkey at 0.5 mg/kg, iv; assay type: ADME, organism-based, Macaca fascicularis; set-up: dose 0.5 mg/kg, route intravenous; conditions: in vivo
[14] = Clearance in cynomolgus monkey at 0.5 mg/kg, iv; assay type: ADME, organism-based, Macaca fascicularis; set-up: dose 0.5 mg/kg, route intravenous; conditions: in vivo
[15] = Oral bioavailability in rat at 2 mg/kg; assay type: ADME, organism-based; conditions: in vivo
[16] = Volume of distribution at steady state in rat at 0.5 mg/kg, iv; assay type: ADME, organism-based; set-up: dose 0.5 mg/kg, route intravenous; conditions: in vivo, read-out: Vdss
[17] = Half life in rat at 0.5 mg/kg, iv; assay type: ADME, organism-based; set-up: dose 0.5 mg/kg, route intravenous; conditions: in vivo
[18] = Clearance in rat at 0.5 mg/kg, iv; assay type: ADME, organism-based; set-up: dose 0.5 mg/kg, route intravenous; conditions: in vivo
[19] = Metabolic stability in human liver microsomes assessed as compound remaining at 1 uM after 30 mins; assay type: ADME; conditions: read-out: Stability
[20] = Intrinsic clearance in human liver microsomes at 1 uM after 30 mins; assay type: ADME; conditions: read-out: CLH
[21] = target: T6, G-protein coupled receptor 119 (Macaca fascicularis) (UniProt G7Q3P2); assay: Agonist activity at cynomolgus monkey GPR119 assessed as cAMP accumulation relative to control; assay type: functional
T6 sequence (whole entry): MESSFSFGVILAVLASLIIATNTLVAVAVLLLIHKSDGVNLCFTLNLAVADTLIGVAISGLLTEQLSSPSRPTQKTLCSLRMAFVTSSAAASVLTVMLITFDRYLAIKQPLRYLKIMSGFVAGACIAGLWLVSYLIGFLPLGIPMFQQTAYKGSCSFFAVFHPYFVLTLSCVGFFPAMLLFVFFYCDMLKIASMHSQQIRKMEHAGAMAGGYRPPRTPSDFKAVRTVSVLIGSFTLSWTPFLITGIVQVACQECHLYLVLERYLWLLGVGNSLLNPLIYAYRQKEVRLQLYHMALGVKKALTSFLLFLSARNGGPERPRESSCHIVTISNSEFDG

[22] = target: T7, G-protein coupled receptor 119 (Macaca fascicularis, UniProt G7Q3P2); assay: Agonist activity at cynomolgus monkey GPR119 assessed as cAMP accumulation; assay type: functional
T7 sequence (G7Q3P2 whole entry): T6 sequence (whole entry)

[23] = Clearance in iv dosed rat; assay type: ADME, organism-based; conditions: in vivo
[24] = Metabolic stability in rat liver microsomes assessed as compound remaining at 1 uM after 30 mins; assay type: ADME; conditions: read-out: Stability

| SMILES | microsomal CLint [2] | Efficacy [3] | EC50 [4] | other results |
| --- | --- | --- | --- | --- |
| O=C1c2cc(C3CC3)nc(Oc3cccc(NS(=O)(=O)c4ccc(Cl)cc4)c3)c2C(=O)N1C1CC1 | 63 µL/min/mg | 99% | 45 nM | microsomal CLint [1]: 27 µL/min/mg |
| Cc1cc2c(c(Oc3cc(NS(=O)(=O)c4ccc(Cl)cc4)ccc3F)n1)C(=O)N(C(C)C)C2=O | 84 µL/min/mg | – | 16 nM | EC50 [5]: 2050 nM; EC50 [6]: 1900 nM; fraction unbound [7]: < 0.01; Activity (Bile salt export pump): Not Active; fraction unbound [8]: < 0.01; inhibition (INH) [9]: Not Active; Activity [10]: Not Active; bioavailability [11]: 29%; Vd [12]: 1.1 L/kg; half-life [13]: 5.6 h; clearance [14]: 7.5 mL/min/kg; bioavailability [15]: 95%; Vd [16]: 1.5 L/kg; half-life [17]: 1.5 h; clearance [18]: 11.8 mL/min/kg; remaining at 0.5 h, 1 µM [19]: 88%; microsomal CLint at 1 µM [20]: 29 µL/min/mg; Efficacy [21]: 102%; EC50 [22]: 73 nM |
| Cc1cc2c(c(Oc3cccc(NS(=O)(=O)c4ccc(Cl)cc4)c3)n1)C(=O)N(C)C2=O | – | 122% | 23 nM | – |
| Cc1cc2c(c(Oc3cccc(NS(=O)(=O)c4ccc(Cl)cc4)c3)n1)C(=O)N(C1CC1)C2=O | – | 111% | 15 nM | – |
| Cc1cc2c(c(Oc3cccc(NS(=O)(=O)c4ccc(Cl)cc4)c3F)n1)C(=O)N(C(C)C)C2=O | – | – | 493 nM | – |
| Cc1cc2c(c(Oc3ccc(C)c(NS(=O)(=O)c4ccc(Cl)cc4)c3)n1)C(=O)N(C(C)C)C2=O | 131 µL/min/mg | – | 9 nM | – |
| Cc1cc2c(c(Oc3cccc(NS(=O)(=O)c4ccc(Cl)cc4)c3)n1)C(=O)N(C1CCCC1)C2=O | – | 95% | 69 nM | – |
| CC(C)OC(=O)N1CCC(Oc2ncnc3c2cnn3-c2ccc(S(C)(=O)=O)cc2)CC1 | – | – | 41 nM | – |
| Cc1cc2c(c(Oc3cc(NS(=O)(=O)c4ccc(Cl)cc4)ccc3Cl)n1)C(=O)N(C(C)C)C2=O | 29 µL/min/mg | – | 33 nM | clearance [23]: 3.67 mL/min/kg |
| Cc1cc2c(c(Oc3cccc(NS(=O)(=O)c4ccc(Cl)cc4)c3)n1)C(=O)N(C(C)C)C2=O | 250 µL/min/mg | 99% | 13 nM | remaining at 0.5 h, 1 µM [24]: 15%; clearance [23]: 80 mL/min/kg |
| Cc1cc2c(c(Nc3ccc(C)c(NS(=O)(=O)c4ccc(Cl)cc4)c3)n1)C(=O)N(C(C)C)C2=O | – | 81% | 382 nM | – |
| Cc1cc2c(c(Oc3cccc(NS(=O)(=O)c4ccc(Cl)cc4)c3)n1)C(=O)NC2=O | – | 109% | 121 nM | – |
| Cc1cc2c(c(Sc3cccc(NS(=O)(=O)c4ccc(Cl)cc4)c3)n1)C(=O)N(C(C)C)C2=O | – | 76% | 19 nM | – |
| Cc1cc2c(c(Oc3cccc(NC(=O)c4ccc(Cl)cc4)c3)n1)C(=O)N(C(C)C)C2=O | 40 µL/min/mg | – | > 30000 nM | – |
| Cc1cc2c(c(Oc3cccc(NS(=O)(=O)c4ccc(Cl)cc4)c3)n1)C(=O)N(c1ccccc1)C2=O | – | 102% | 299 nM | – |
| Cc1cc2c(c(Oc3cc(F)cc(NS(=O)(=O)c4ccc(Cl)cc4)c3)n1)C(=O)N(C(C)C)C2=O | – | – | 357 nM | – |
| CCN1C(=O)c2cc(C)nc(Oc3cccc(NS(=O)(=O)c4ccc(Cl)cc4)c3)c2C1=O | – | 120% | 11 nM | – |
| Cc1cc2c(c(Sc3ccc(C)c(NS(=O)(=O)c4ccc(Cl)cc4)c3)n1)C(=O)N(C(C)C)C2=O | – | 85% | 224 nM | – |
| Cc1cc2c(c(Oc3cccc(S(=O)(=O)Nc4ccc(Cl)cc4)c3)n1)C(=O)N(C(C)C)C2=O | – | – | 238 nM | – |
| COc1cc2c(c(Oc3cccc(NS(=O)(=O)c4ccc(Cl)cc4)c3)n1)C(=O)N(C1CC1)C2=O | – | 97% | 19 nM | – |
| Cc1cc2c(c(Oc3cccc(N(C)S(=O)(=O)c4ccc(Cl)cc4)c3)n1)C(=O)N(C(C)C)C2=O | > 400 µL/min/mg | – | 11 nM | – |
